# Patent publication US11802108B2, “Compounds for the modulation of cyclophilins function” (The University Court of The University of Edinburgh, priority 2018, dated 2023)
# Structures can show the parent of a compound that is named as a salt.
# Assays:
# [1] = biological target: T1, CypA (Homo sapiens (Human), UniProt P62937); experiment: Isothermal titration calorimetry (ITC) binding to CypA; details: 25° C.
# Method: All ITC experiments for the ester series compounds were carried out at 25° C. on a MicroCal Auto iTC200 (GE Healthcare) instrument. The buffer used in the titrations of the compounds belonging to the ester series was 50 mM phosphate buffer, pH 6.5 and the concentration of DMSO was 2% v/v for all the compounds, unless otherwise stated in Table 51. Final compound solutions were heated to 65° C. and/or sonicated prior to the experiment. Each experiment consisted of an initial injection of 0.4 μL followed by nineteen 2 μL injections and in most of cases for these compounds, the “continue injections” protocol was used leaving the cell intact and performing a second series of titrations using the above protocol to achieve saturation. Control experiments were performed, where each compound was titrated into buffer and when small amount of heat was detected due to heat of dilution, it was subtracted when processing the data using a linear fit method. In all cases the first injection was omitted from the data processing. All data were analysed using the MicroCal PEAQ-ITC Analysis software.
# The buffer used for these titrations was: PBS, 0.05% v/v P20 surfactant, 50 μM EDTA in presence of 2% v/v EtOH and the pH was set to 7.4.
# [2] = biological target: T1, CypA; experiment: X-ray co-crystal structure with CypA; on CypA X-ray co-crystal: key: Y: observed in cocrystal; N: not observed in cocrystal; assay type: binding; details: for CypA X-ray co-crystal: apo CypA crystals soaked with 5 mM ligand; for binding mode in co-crystal structure of CypA: FIG. 1
# Method: Purified and his-tag-cleaved CypA was buffer-exchanged into PBS and concentrated to ˜29 mg ml^−1. For crystallisation 1 μL of protein was mixed with an equal volume of the well solution, consisting of 100 mM Tris-HCl pH8.0 and 20-22% v/v PEG 8000, and crystal formation came about after equilibration overnight in 6° C. by vapour diffusion using the hanging drop method over 1 mL of the same well solution. Apo CypA crystals were soaked overnight into different ligand solution consisting of 100 mM Tris-HCl pH 8.0, 35% w/v PEG 8000, 5% v/v Glycerol, 5% v/v DMSO and 5 mM ligand, before flash frozen into liquid nitrogen. X-ray data were collected at the Diamond synchrotron-radiation facility in Oxford-shire, England at 100K. Structures were solved by molecular replacement using DIMPLE from the CCP4i suite. Modelled structures were visualised and manually adjusted as needed using Coot10 and further refined using REFMAC5 from CCP4i.
# FIG. 1A summarises the mode of binding of certain prior-art urea small molecule Cyp inhibitors.
# [3] = biological target: T1, CypA; experiment: Surface plasmon resonance (SPR) binding to His-CypA; details: 25° C., triplicate
# Method: (§1) SPR measurements were performed on a BIAcore T200 instrument (GE Healthcare). Ni^2+-nitrilotriacetic acid (NTA) sensor chips, 1-ethyl-3-(3-[…]) carbodiimide hydrochloride (EDC) and Nhydroxysuccinimide (NHS) were purchased from GE Healthcare.
# (§2) Pure His-cyclophilins were immobilized and covalently stabilized on the NTA sensor chip according to the protocol described in Thermo-kinetic analysis space expansion for cyclophilin-ligand interactions—identification of a new nonpeptide inhibitor using Biacore T200.
# (§3) Single cycle kinetic titration binding experiments were performed using SPR in triplicate at 25° C. […] The sensor surface was regenerated between experiments by dissociating any formed complex in running buffer for at least 1,200 seconds.
# (§4) Kinetic titration binding experiments were performed in triplicate at 25° C. […] The sensor surface was regenerated between experiments by dissociating any formed complex in running buffer for at least a further 600 seconds.
# [4] = biological target: CypB (Homo sapiens (Human), UniProt P23284); experiment: Surface plasmon resonance (SPR) binding to His-CypB; details: 25° C., triplicate
# Method: as §3, §4
# [5] = biological target: CypD (Homo sapiens (Human), UniProt P30405); experiment: Surface plasmon resonance (SPR) binding to His-CypD; details: 25° C., triplicate
# Method: as §1, §2, §3, §4
# [6] = system: MDA-MB-231 cells; experiment: Growth inhibition (GI50) of MDA-MB-231 cells, IncuCyte imaging; assay type: cell-based; details: MDA-MB-231, 120 hours imaging
# Method: (§5) The latter medium with 2000 U/mL IL-2 was used for NK92 cell killing assays.
# (§6) To determine the direct effect of the compounds on cell proliferation, cells were seeded at a density of 500 cells per well in cell culture medium in 384-well cell culture plates and allowed to adhere overnight (about 16 hours), incubated in a humidified atmosphere with 5% CO2. Subsequently, cell culture medium was refreshed, supplemented with Draq 7 (3 μM final concentration) and test compound at the indicated concentrations with three wells being treated for each condition tested. Cells were then returned to the cell culture incubator and imaged with a 10× objective every 3 hours for 120 hours using an IncuCyte ZOOM microscope from Essen Bioscience.
# (§7) Using the IncuCyte ZOOM software, custom image analysis procedures were developed and applied for each cell line to determine cell confluency, cell number and number of dead cells over the time course of the experiment.
# (§8) Statistical analyses in cell viability assays to compare the effect of compound treatment to treatment with vehicle were performed using GraphPad Prism 6 (2-way ANOVA with Bonferroni correction post hoc).
# [7] = system: MDA-MB-231 cells; experiment: Cytotoxicity (cell death, Draq7) in MDA-MB-231 cells; assay type: cell-based
# Method: as §5, §6, §7, §8
# [8] = system: IMR-90 cells; experiment: Cytotoxicity (cell death, Draq7) in IMR-90 cells; assay type: cell-based
# Method: as §5, §6, §7, §8
# [9] = system: MDA-MB-231 cells in presence of NK92 cells; experiment: NK92 immune cell killing of MDA-MB-231 cancer cells; assay type: cell-based; details: with NK92 cells
# Method: as §5
# (§9) NK92 cells were then added at a density of 1000 cells per well and 10 μM test compound was added. Cells were imaged with a 10× objective every 3 hours for 120 hours using an IncuCyte ZOOM microscope from Essen Bioscience.
# (§10) Apoptotic fraction of the population (number of nuclei with co-localized red and green fluorescence divided by total number of red nuclei in the population) and fold increase in number of red nuclei were determined at various time points.
# [10] = system: NK92 cells; experiment: Proliferation of NK92 cells; assay type: cell-based
# Method: as §5, §9, §10
# T1 sequence (P62937 whole entry): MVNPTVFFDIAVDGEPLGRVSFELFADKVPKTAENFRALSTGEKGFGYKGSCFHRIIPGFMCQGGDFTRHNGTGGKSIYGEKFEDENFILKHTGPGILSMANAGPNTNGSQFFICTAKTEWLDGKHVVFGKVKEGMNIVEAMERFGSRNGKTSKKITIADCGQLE
# Sequence of CypB (P23284 34-216): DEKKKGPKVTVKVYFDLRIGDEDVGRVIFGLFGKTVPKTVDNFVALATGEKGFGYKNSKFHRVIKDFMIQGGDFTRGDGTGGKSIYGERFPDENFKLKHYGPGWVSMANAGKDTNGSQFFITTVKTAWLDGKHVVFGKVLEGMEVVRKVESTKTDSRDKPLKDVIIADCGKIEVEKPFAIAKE
# Sequence of CypD (P30405 30-207): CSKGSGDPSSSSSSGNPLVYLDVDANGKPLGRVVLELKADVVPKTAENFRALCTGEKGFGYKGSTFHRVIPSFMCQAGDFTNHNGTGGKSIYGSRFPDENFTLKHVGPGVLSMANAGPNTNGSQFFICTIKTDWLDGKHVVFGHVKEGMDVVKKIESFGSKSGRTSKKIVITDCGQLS
Structure (SMILES),Kd [1],CypA X-ray co-crystal [2],other results
"CCOC(=O)CNC(=O)N(CC)Cc1ccc2c(c1)[C@H]1CC(N2)[C@H](O)CO1 (stereo in doubt) [Compound 23, Ethyl 2-{[ethyl({[(1R,9S,10S)-10-hydroxy-12-oxa-8-azatricyclo[7.3.1.0^2,7]trideca-2,4,6-trien-4-yl]methyl})carbamoyl]amino}acetate hydrochloride]",700 ± 235 µM,N,
"C#CCN(Cc1ccc(N)cc1)C(=O)NCC(=O)N1CCCC1c1ccccc1Br.Cl (stereo not shown) [Compound 1, 1-[(4-aminophenyl)methyl]-3-{2-[2-(2-bromophenyl)pyrrolidin-1-yl]-2-oxoethyl}-1-(prop-2-yn-1-yl)urea hydrochloride]",2 ± 1 µM,Y,Kd [3]: 3.2 ± 1.3 µM; Kd [4]: 1.4 ± 0.4 µM; Kd [5]: 0.2 ± 0.1 µM; GI50 ([6]; Homo sapiens): 5.1 ± 0.9 µM; Toxicity MDA-MB-231 @10 μM [7]: N; Toxicity IMR-90 @10 μM [8]: N; Apoptotic fraction of the MDA-MB-231 population in the presence of NK92 cells after 72 h @ 10 μM [9]: 0.64 ± 0.03; Fold increase MDA-MB-231 cells in presence of NK92 cells after 72 h @ 10 μM [9]: 2.0 ± 0.3; Fold increase in NK92 cells after 72 h @ 10 μM [10]: 4.3 ± 0.7
"CCOC(=O)Cn1cc(CN(Cc2ccc(N)cc2)C(=O)NCC(=O)N2CCCC2c2ccccc2Br)nn1.Cl (stereo not shown) [Compound 5, Ethyl 2-[4-({[(4-aminophenyl)methyl]({2-[2-(2-bromophenyl)pyrrolidin-1-yl]-2-oxoethyl}carbamoyl)amino}methyl)-1H-1,2,3-triazol-1-yl]acetate hydrochloride]",~3 µM,N,Kd [3]: 4.3 ± 1 µM; Kd [4]: 1.9 ± 0.9 µM; Kd [5]: 1 ± 0.4 µM
"CCOC(=O)CCn1cc(CN(Cc2ccc(N)cc2)C(=O)NCC(=O)N2CCCC2c2ccccc2Br)nn1.Cl (stereo not shown) [Compound 6, Ethyl 3-[4-({[(4-aminophenyl)methyl]({2-[2-(2-bromophenyl)pyrrolidin-1-yl]-2-oxoethyl}carbamoyl)amino}methyl)-1H-1,2,3-triazol-1-yl]propanoatehydrochloride]",0.3 ± 0.08 µM,N,
"Cl.Cn1cc(CN(Cc2ccc(N)cc2)C(=O)NCC(=O)N2CCCC2c2ccccc2Cl)nn1 (stereo not shown) [Compound 8, 1-[(4-aminophenyl)methyl]-3-{2-[2-(2-chlorophenyl)pyrrolidin-1-yl]-2-oxoethyl}-1-[(1-methyl-1H-1,2,3-triazol-4-yl)methyl]urea hydrochloride]",1.1 ± 0.4 µM,N,
"CCN(Cc1ccc(N)cc1)C(=O)NCC(=O)N1CCCC1c1ccccc1 (stereo not shown) [Compound 9, 1-[(4-aminophenyl)methyl]-3-{2-[2-(phenyl)pyrrolidin-1-yl]-2-oxoethyl}-1-ethylurea]",35 ± 5 µM,Y,
"CCN(Cc1ccc(N)cc1)C(=O)NCC(=O)N1CCCC1c1ccccc1Br.Cl (stereo not shown) [Compound 10, 1-[(4-aminophenyl)methyl]-3-{2-[2-(2-bromophenyl)pyrrolidin-1-yl]-2-oxoethyl}-1-ethylurea hydrochloride]",~25 µM,N,
"Cl.Nc1ccc(CN(CC2CC2)C(=O)NCC(=O)N2CCCC2c2ccccc2Br)cc1 (stereo not shown) [Compound 11, 1-[(4-aminophenyl)methyl]-3-{2-[2-(2-bromophenyl)pyrrolidin-1-yl]-2-oxoethyl}-1-(cyclopropylmethyl)urea]",~10 µM,Y,
"CCOC(=O)CNC(=O)N(CC)Cc1ccc(N)cc1.Cl [Compound 12, Ethyl 2-({[(4-aminophenyl)methyl](ethyl)carbamoyl}amino)acetate hydrochloride]",200 ± 5 µM,Y,binding mode in co-crystal structure of CypA [2]: type-I binding mode
"CCOC(=O)CNC(=O)N(CC#N)Cc1ccc(N)cc1.Cl [Compound 13, Ethyl 2-({[(4-aminophenyl)methyl](cyanomethyl)carbamoyl}amino)acetate hydrochloride]",990 ± 20 µM,Y,
"CCOC(=O)CNC(=O)N(Cc1ccc(N)cc1)Cc1nnn[nH]1.Cl [Compound 14, Ethyl 2-({[(4-aminophenyl)methyl][(1H-1,2,3,4-tetrazol-5-yl)methyl]carbamoyl}amino)acetate hydrochloride]",139 ± 4 µM,N,
"CCOC(=O)[C@H](CCSC)NC(=O)N(CC)Cc1ccc(N)cc1 [Compound 15, Ethyl (2S)-2-({[(4-aminophenyl)methyl](ethyl)carbamoyl}amino)-4-(methylsulfanyl)butanoate hydrochloride]",35 ± 5 µM,Y,
"CCCN(Cc1ccc(N)cc1)C(=O)NCC(=O)OCC [Compound 16, Ethyl 2-({[(4-aminophenyl)methyl](propyl)carbamoyl}amino)acetate]",266 ± 3 µM,Y,
"CCOC(=O)CNC(=O)N(Cc1ccc(N)cc1)CC1CC1.Cl [Compound 17, Ethyl 2-({[(4-aminophenyl)methyl](cyclopropylmethyl)carbamoyl}amino)acetate hydrochloride]",,Y,
"CCOC(=O)CNC(=O)N(Cc1ccc(N)cc1)Cc1cn(C)nn1.Cl [Compound 18, Ethyl 2-({[(4-aminophenyl)methyl][(1-methyl-1H-1,2,3-triazol-4-yl)methyl]carbamoyl}amino)acetate hydrochloride]",135 ± 6 µM,Y,
"CCOC(=O)CNC(=O)N(Cc1ccc(N)cc1)Cc1nnn(C)n1.Cl [Compound 19, Ethyl 2-({[(4-aminophenyl)methyl][(2-methyl-2H-1,2,3,4-tetrazol-5-yl)methyl]carbamoyl}amino)acetate hydrochloride]",184 ± 13 µM,Y,binding mode in co-crystal structure of CypA [2]: type-II binding mode
"C#CCN(Cc1ccc(N)cc1)C(=O)NCC(=O)OCC [Compound 22, Ethyl 2-({[(4-aminophenyl)methyl](prop-2-yn-1-yl)carbamoyl}amino)acetate]",> 1000 µM,Y,
"C/C=C/CC(C)C(O)C1C(=O)NC(CC)C(=O)N(C)CC(=O)N(C)C(CC(C)C)C(=O)NC(C(C)C)C(=O)N(C)C(CC(C)C)C(=O)NC(C)C(=O)NC(C)C(=O)N(C)C(CC(C)C)C(=O)N(C)C(CC(C)C)C(=O)N(C)C(C(C)C)C(=O)N1C (stereo not shown) [CsA, Cyclosporin A, reference compound]",,,GI50 [6]: 6.2 ± 0.8 µM; Apoptotic fraction of the MDA-MB-231 population in the presence of NK92 cells after 72 h @ 10 μM [9]: 0.38 ± 0.01
